Key:
[1] = Cotton Pellet Granuloma test (anti-inflammatory activity); assay type: in vivo; conditions: * significantly active
From the text: (§1) The compounds were examined for Anti-Inflammatory Activity in two conventional tests, the Cotton Pellet Granuloma test and the Carrageenin test.

[2] = Carrageenin test (anti-inflammatory activity); assay type: in vivo; conditions: * significantly active
From the text: as §1

[3] = phenyl quinone writhing test (analgesic activity); assay type: in vivo
From the text: The compounds were also examined for Analgesic Activity in the conventional phenyl quinone writhing test.

Cc1ccc2c(c1)CCc1cc(CC(=O)O)n(C)c1C2=O [Example 1, 4,5-Dihydro-1,7-dimethyl-10H-10-oxo-benzo[5,6]cyclohepta[1,2-b]pyrrole-2-acetic acid]
Cotton Pellet % Inhibition ([1]; 25 mg/kg): 34% | Carrageenin % Inhibition ([2]; 5 mg/kg): 21% | Carrageenin % Inhibition ([2]; 25 mg/kg): 44% | ED50 [3]: 5.1 mg/kg | TD50 (in vivo): 95 mg/kg

Cn1c(CC(=O)O)cc2c1C(=O)c1ccccc1CC2 [Example 2, 4,5-Dihydro-10H-1-methyl-10-oxobenzo[5,6]-cyclohepta[1,2-b]pyrrole-2-aceticacid]
Cotton Pellet % Inhibition ([1]; 10 mg/kg): 28% | Carrageenin % Inhibition ([2]; 15 mg/kg): 25% | Carrageenin % Inhibition ([2]; 45 mg/kg): 30% | ED50 [3]: 2.4 mg/kg

CC(=O)CCc1cc2c(n1C)C(=O)c1ccccc1CC2 [Example 4, 4-(4,5-Dihydro-10H-1-methyl-10-oxo-benzo[5,6]cyclohepta[1,2-b]-2-pyrryl)butan-2-one]
Carrageenin % Inhibition ([2]; 15 mg/kg): 17% | Carrageenin % Inhibition ([2]; 45 mg/kg): 20%

CC(O)CCc1cc2c(n1C)C(=O)c1ccccc1CC2 (centres unmarked) [Example 5, 4-(4,5-Dihydro-10H-1-methyl-10-oxo-benzo[5,6]cyclohepta[1,2-b]-2-pyrryl)butan-2-ol]
Carrageenin % Inhibition ([2]; 45 mg/kg): 25%

CC(=O)OC(C)CCc1cc2c(n1C)C(=O)c1ccccc1CC2 (centres unmarked) [Example 6, 2-Acetoxy-4-(4,5-dihydro-10H-1-methyl-10-oxo-benzo[5,6]cyclohept[1,2-b]-2-pyrryl)butane]
Carrageenin % Inhibition ([2]; 15 mg/kg): 17% | Carrageenin % Inhibition ([2]; 45 mg/kg): 19%

Cn1c(CC(=O)O)cc2c1C(=O)c1ccc(Cl)cc1CC2 [Example 7, 7-Chloro-4,5-dihydro-10H-1-methyl-10-oxobenzo[5,6]cyclohepta[1,2-b]pyrrole-2-acetic acid]
Cotton Pellet % Inhibition ([1]; 25 mg/kg): 49% | Carrageenin % Inhibition ([2]; 25 mg/kg): 25%

Cn1c(CC(=O)O)cc2c1C(=O)c1ccc(F)cc1CC2 [Example 8, 4,5-Dihydro-7-fluoro-10H-1-methyl-10-oxobenzo[5,6]cyclohepta[1,2-b]pyrrole-2-acetic acid]
Cotton Pellet % Inhibition ([1]; 10 mg/kg): 31%
